Test results published in US20240132484A1, “BROAD SPECTRUM ANTIVIRAL COMPOUNDS TARGETING THE SKI COMPLEX” (priority 2020, published 2024).
Values joined by “and” are separate entries in the source; they are usually repeats but may differ in a detail not shown here. Equal values may be shown once. Read-outs that look alike come from different tables or passages of the source.

Key:
cells (nuclei count) = conditions: for Relative cell count to DMSO controls, Average 1 μM / Relative cell count to DMSO controls, Average 5 μM / Relative cell count to DMSO controls, Average 10 μM / Relative cell count to DMSO controls, Average 25 μM / Relative cell count to DMSO controls, Average 50 μM: toxicity data, 100=DMSO control; for Relative cell count to DMSO controls, Average (for correlation analysis): average value over the 5 tested concentrations (1 to 50 uM); for Toxicity Data: Average, Mean: average of Exp 1-3 (SMW454, SMW466, SMW480), n 9
SARS2 = type: cell-based, SARS-CoV-2; conditions: for Percentage Infection Relative to Appropriate DMSO Control with Avg Background Subtraction: single well; for Percentage Inhibition Average 1 μM / Screening data (Relative infection to DMSO controls) Average 1 μM: SARS2, 1 μM; for Screening data (Relative infection to DMSO controls) Average 1 μM / Screening data (Relative infection to DMSO controls) Average 5 μM / Screening data (Relative infection to DMSO controls) Average 10 μM / Screening data (Relative infection to DMSO controls) Average 25 μM / Screening data (Relative infection to DMSO controls) Average 50 μM / Average (relative infection to DMSO over the 5 tested concentrations): 100=DMSO control; for Percentage Inhibition Average 5 μM / Screening data (Relative infection to DMSO controls) Average 5 μM: SARS2, 5 μM; for Percentage Inhibition Average 10 μM / Screening data (Relative infection to DMSO controls) Average 10 μM: SARS2, 10 μM; for Percentage Inhibition Average 25 μM / Screening data (Relative infection to DMSO controls) Average 25 μM: SARS2, 25 μM; for Percentage Inhibition Average 50 μM / Screening data (Relative infection to DMSO controls) Average 50 μM: SARS2, 50 μM; for Average (relative infection to DMSO over the 5 tested concentrations): SARS2, average over 1 to 50 uM

## CCN(CC)CCN(Cc1ccccc1)Cc1ccc(C)o1 [SILCS23]
Cells (nuclei count)
  Relative cell count to DMSO controls, Average 1 μM: 123.69
  Relative cell count to DMSO controls, Average 5 μM: 129.2
  Relative cell count to DMSO controls, Average 10 μM: 125.61
  Relative cell count to DMSO controls, Average 25 μM: 112.58
  Relative cell count to DMSO controls, Average 50 μM: 92.88
  Relative cell count to DMSO controls, Average (for correlation analysis): 116.79
Cells (nuclei count); Average of Exp 1-3, n 9, 1 uM
  Toxicity Data, Average, Mean: 123.69%
Cells (nuclei count); Average of Exp 1-3, n 9, 5 uM
  Toxicity Data, Average, Mean: 129.20%
Cells (nuclei count); Average of Exp 1-3, n 9, 10 uM
  Toxicity Data, Average, Mean: 125.61%
Cells (nuclei count); Average of Exp 1-3, n 9, 25 uM
  Toxicity Data, Average, Mean: 112.58%
Cells (nuclei count); Average of Exp 1-3, n 9, 50 uM
  Toxicity Data, Average, Mean: 92.88%
SARS2; Average of Exp 1-3, n 9, 1 uM
  Infection Data, Average, Mean: 83.26%
SARS2; Average of Exp 1-3, n 9, 5 uM
  Infection Data, Average, Mean: 72.94%
SARS2; Average of Exp 1-3, n 9, 10 uM
  Infection Data, Average, Mean: 71.95%
SARS2; Average of Exp 1-3, n 9, 25 uM
  Infection Data, Average, Mean: 42.51%
SARS2; Average of Exp 1-3, n 9, 50 uM
  Infection Data, Average, Mean: 25.76%
SARS2; Exp 1 (SMW475), 1 uM
  Percentage Infection Relative to Appropriate DMSO Control with Avg Background Subtraction: 84.61% and 99.83% and 96.53%
SARS2; Exp 1 (SMW475), 5 uM
  Percentage Infection Relative to Appropriate DMSO Control with Avg Background Subtraction: 76.20% and 84.17% and 85.48%
SARS2; Exp 1 (SMW475), 10 uM
  Percentage Infection Relative to Appropriate DMSO Control with Avg Background Subtraction: 57.63% and 66.75% and 71.82%
SARS2; Exp 1 (SMW475), 25 uM
  Percentage Infection Relative to Appropriate DMSO Control with Avg Background Subtraction: 23.73% and 16.03% and 21.54%
SARS2; Exp 1 (SMW475), 50 uM
  Percentage Infection Relative to Appropriate DMSO Control with Avg Background Subtraction: 11.05% and 12.93% and 12.05%
SARS2; Exp 2 (SMW477), 1 uM
  Percentage Infection Relative to Appropriate DMSO Control with Avg Background Subtraction: 76.88% and 82.87% and 95.55%
SARS2; Exp 2 (SMW477), 5 uM
  Percentage Infection Relative to Appropriate DMSO Control with Avg Background Subtraction: 77.18% and 66.56% and 59.07%
SARS2; Exp 2 (SMW477), 10 uM
  Percentage Infection Relative to Appropriate DMSO Control with Avg Background Subtraction: 81.53% and 45.87% and 61.92%
SARS2; Exp 2 (SMW477), 25 uM
  Percentage Infection Relative to Appropriate DMSO Control with Avg Background Subtraction: 42.76% and 36.42% and 27.04%
SARS2; Exp 2 (SMW477), 50 uM
  Percentage Infection Relative to Appropriate DMSO Control with Avg Background Subtraction: 22.07% and 19.29% and 19.84%
SARS2; Exp 3 (SMW478), 1 uM
  Percentage Infection Relative to Appropriate DMSO Control with Avg Background Subtraction: 74.83% and 73.82% and 64.40%
SARS2; Exp 3 (SMW478), 5 uM
  Percentage Infection Relative to Appropriate DMSO Control with Avg Background Subtraction: 80.66% and 70.90% and 56.23%
SARS2; Exp 3 (SMW478), 10 uM
  Percentage Infection Relative to Appropriate DMSO Control with Avg Background Subtraction: 84.08% and 95.62% and 82.31%
SARS2; Exp 3 (SMW478), 25 uM
  Percentage Infection Relative to Appropriate DMSO Control with Avg Background Subtraction: 59.17% and 74.77% and 81.13%
SARS2; Exp 3 (SMW478), 50 uM
  Percentage Infection Relative to Appropriate DMSO Control with Avg Background Subtraction: 42.28% and 47.99% and 44.36%
SARS2
  Percentage Inhibition Average 1 μM: 16.74%
  Screening data (Relative infection to DMSO controls) Average 1 μM: 83.26
  Percentage Inhibition Average 5 μM: 27.06%
  Screening data (Relative infection to DMSO controls) Average 5 μM: 72.94
  Percentage Inhibition Average 10 μM: 28.05%
  Screening data (Relative infection to DMSO controls) Average 10 μM: 71.95
  Percentage Inhibition Average 25 μM: 57.49%
  Screening data (Relative infection to DMSO controls) Average 25 μM: 42.51
  Percentage Inhibition Average 50 μM: 74.24%
  Screening data (Relative infection to DMSO controls) Average 50 μM: 25.76
  Average (relative infection to DMSO over the 5 tested concentrations): 59.28

## CN(C)CCN(Cc1ccsc1)Cc1ccco1 [SILCS12]
Cells (nuclei count); 1 uM
  Toxicity Data: Average, Mean: 103.58%
Cells (nuclei count)
  Relative cell count to DMSO controls, Average 1 μM: 103.58
  Relative cell count to DMSO controls, Average 5 μM: 102.7
  Relative cell count to DMSO controls, Average 10 μM: 96.1
  Relative cell count to DMSO controls, Average 25 μM: 95.34
  Relative cell count to DMSO controls, Average 50 μM: 66.97
  Relative cell count to DMSO controls, Average (for correlation analysis): 92.94
Cells (nuclei count); 5 uM
  Toxicity Data: Average, Mean: 102.70%
Cells (nuclei count); 10 uM
  Toxicity Data: Average, Mean: 96.10%
Cells (nuclei count); 25 uM
  Toxicity Data: Average, Mean: 95.34%
Cells (nuclei count); 50 uM
  Toxicity Data: Average, Mean: 66.97%
SARS2
  Percentage Infection Relative to DMSO Control, Average, Mean: 76.66% and 135.12% and 110.30% and 109.01% and 120.43%
  Percentage Inhibition Average 1 μM: −20.43%
  Screening data (Relative infection to DMSO controls) Average 1 μM: 120.43
  Percentage Inhibition Average 5 μM: −9.01%
  Screening data (Relative infection to DMSO controls) Average 5 μM: 109.01
  Percentage Inhibition Average 10 μM: −10.30%
  Screening data (Relative infection to DMSO controls) Average 10 μM: 110.30
  Percentage Inhibition Average 25 μM: −35.12%
  Screening data (Relative infection to DMSO controls) Average 25 μM: 135.12
  Percentage Inhibition Average 50 μM: 23.34%
  Screening data (Relative infection to DMSO controls) Average 50 μM: 76.66
  Average (relative infection to DMSO over the 5 tested concentrations): 110.30

## COc1ccc(C2NC(=O)NC(C)=C2C(=O)NCC2CCC2)cc1OC (stereo not shown) [SILCS64]
Cells (nuclei count)
  Relative cell count to DMSO controls, Average 1 μM: 103.13
  Relative cell count to DMSO controls, Average 5 μM: 119.2
  Relative cell count to DMSO controls, Average 10 μM: 92.78
  Relative cell count to DMSO controls, Average 25 μM: 84.89
  Relative cell count to DMSO controls, Average 50 μM: 75.66
  Relative cell count to DMSO controls, Average (for correlation analysis): 95.13
SARS2
  Percentage Inhibition Average 1 μM: 20.42%
  Screening data (Relative infection to DMSO controls) Average 1 μM: 79.58
  Percentage Inhibition Average 5 μM: 66.48%
  Screening data (Relative infection to DMSO controls) Average 5 μM: 33.52
  Percentage Inhibition Average 10 μM: −11.17%
  Screening data (Relative infection to DMSO controls) Average 10 μM: 111.17
  Percentage Inhibition Average 25 μM: −30.68%
  Screening data (Relative infection to DMSO controls) Average 25 μM: 130.68
  Percentage Inhibition Average 50 μM: −58.69%
  Screening data (Relative infection to DMSO controls) Average 50 μM: 158.69
  Average (relative infection to DMSO over the 5 tested concentrations): 102.73
